Laboratory results taken from US8232289B2, “Spiropiperidine compounds as ORL-1 receptor antagonists” (Eli Lilly and Company, priority 2009, dated 2012).
Like-named read-outs stand apart in the source and are kept apart here.

Assays:
human ORL1 receptors = target: T1, human ORL1 receptors (Homo sapiens, UniProt P41146); assay: [3H]-OFQ/nociceptin receptor binding assay
T1 construct: expressed in transfected cells; host or cells: CHO cells (membranes)
Procedure: Radioligand binding assays are commonly used to determine the affinity (Ki) or potency of a compound to bind to a particular receptor or target protein. A filtration-based [3H]-OFQ/nociceptin receptor binding assay is developed based on previous assay formats (Ardati A, Henningsen R A, Higelin J, Reinscheid R K, Civelli O, Monsma F J Jr. Mol. Pharmacol. 1997 May; 51(5):816-24.) with minor modifications. [3H]-OFQ/nociceptin binding assays are carried out in deep-well 96-well plates. [^3H]OFQ (final assay concentration 0.2 nM) competition studies are carried out with 5-10 μg of membrane protein (isolated from Chinese hamster ovary cells (CHO cells) expressing cloned human ORL1 receptors) in a final assay volume of 0.5 mL of buffer containing 20 mM HEPES, pH 7.4, 5 mM MgCl2, 1 mM EGTA, 100 mM NaCl, 0.1% bovine serum albumin. Samples are incubated for 60 min. at room temperature, which is found to be optimal for competition assays. The assays are terminated by filtration through glass fiber filters (Wallac filtermat A) [pretreated with 0.3% polyethylenimine (Sigma) for 1 hr] on a Tometc cell harvester, and the filters are washed three times with 5 mL of ice-cold 50 mM Tris.HCl, pH 7.4. Filtermats are then dried and imbedded with Meltilex scintillant A and the radioactivity counted in a Wallac Microbeta scintillation counter. Specific binding is determined by displacement with 100 nM unlabeled nociceptin. Curves are plotted as the percent of specific binding and IC50 values are determined using a sigmoidal dose response curve with variable slope. Ki values are calculated from the IC50 by the equation of Cheng and Prusoff (Cheng, Y. C., and Prusoff, W. H., Biochem. Pharmacol. 22, 3099-3108 (1973)) where Ki=IC50×(1+D×Kd^−1)^−1.

Kappa Opioid = Kappa Opioid (Homo sapiens, UniProt P41145); assay: Radioligand binding selectivity, Kappa Opioid
Sequence of Kappa Opioid (P41145 whole entry): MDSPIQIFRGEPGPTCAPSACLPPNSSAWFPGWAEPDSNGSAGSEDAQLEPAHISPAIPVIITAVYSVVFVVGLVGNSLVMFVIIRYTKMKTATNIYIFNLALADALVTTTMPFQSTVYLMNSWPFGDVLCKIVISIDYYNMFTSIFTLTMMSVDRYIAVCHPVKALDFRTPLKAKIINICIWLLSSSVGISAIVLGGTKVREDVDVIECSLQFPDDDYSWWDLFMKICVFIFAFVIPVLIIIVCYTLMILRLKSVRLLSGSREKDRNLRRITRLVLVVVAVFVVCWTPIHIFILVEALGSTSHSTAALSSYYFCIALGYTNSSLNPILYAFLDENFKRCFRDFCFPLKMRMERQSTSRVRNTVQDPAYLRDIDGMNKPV
From the text: Similarly, Ki for the mu, kappa and delta opioids, serotonin, dopamine, adrenergic, mucarinic, and histamine receptors, as well as binding to the norepinephrine transporter, sodium channel, chloride channel, and calcium channel may be determined using membranes expressing the desired receptor/transporter/channels and appropriate corresponding radioligand competitor molecules.

[1] = target: T2, nociceptin/ORL1 receptors (Rattus norvegicus, UniProt P35370); assay: In vivo receptor occupancy (LC/MS/MS, RO Tracer) in hypothalamus; parameters: species or system rats; conditions: for receptor occupancy at 3 mg/kg: rat hypothalamus, 3 mg/kg oral dose, after 6 hr.
T2 construct: from tissue; host or cells: rat hypothalamus (in vivo)
T2 sequence (P35370 whole entry): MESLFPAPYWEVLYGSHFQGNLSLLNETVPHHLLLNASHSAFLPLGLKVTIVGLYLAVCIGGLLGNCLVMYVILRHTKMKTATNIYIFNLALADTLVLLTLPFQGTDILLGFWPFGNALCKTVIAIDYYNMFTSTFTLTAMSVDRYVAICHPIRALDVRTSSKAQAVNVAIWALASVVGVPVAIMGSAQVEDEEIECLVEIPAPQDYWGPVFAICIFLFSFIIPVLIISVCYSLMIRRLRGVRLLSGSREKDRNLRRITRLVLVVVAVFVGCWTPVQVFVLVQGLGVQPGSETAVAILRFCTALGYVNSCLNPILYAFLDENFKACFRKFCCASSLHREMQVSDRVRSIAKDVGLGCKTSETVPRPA
Procedure: Receptor occupancy (RO) using LC/MS/MS has been established as a way to measure central target engagement of putative ORL-1 antagonist in vivo. Nociceptin/ORL1 receptor occupancy (RO) is measured in the hypothalamus, a structure which contains a high density of nociceptin/ORL1 binding sites that are inside the blood brain barrier, using a novel proprietary nociceptin/ORL1 antagonist RO tracer, 2-[(2-fluorophenyl)methyl]-3-(2-fluorospiro[4,5-dihydrothieno[2,3-c]pyran-7,4′-piperidine]-1′-yl)-N,N-dimethyl-propanamide, (RO Tracer). These measurements are made without the need for a radiolabeled tracer as previously published for other receptors with modifications (Chemet E, Martin L J, Li D, Need A B, Barth V N, Rash K S, Phebus L A. Use of LC/MS to assess brain tracer distribution in preclinical, in vivo receptor occupancy studies: dopamine D2, serotonin 2A and NK-1 receptors as examples. Life Sci. 78(4):340-6, 2005.). A positive correlation has been established between central nociceptin/ORL1 RO and efficacy in the modulation of the feeding behavior and forced swim test in rodents. Central nociceptin/ORL1 RO is measured at 6 or 24 hours following oral administration of the test compound to rats. Male Sprague-Dawley rats (Harlan Sprague-Dawley, Indianapolis, Ind.) are treated orally with a test compound, or vehicle (20% Captisol, 25 mM phosphate buffer, pH 2.0). At 6 or 24 hours following administration of test compound/vehicle, all animals are administered an intravenous, 3 ng/kg dose of RO Tracer. It is at the time of RO Tracer administration that RO is considered to be measured. Forty minutes after RO Tracer administration, rats are sacrificed by cervical dislocation and the hypothalamus is removed. The level of RO Tracer is measured in each tissue sample.
The centrally active literature reference standard (−)-cis-1-methyl-7-[[4-(2,6-dichlorophenyl)piperidin-1-yl]methyl]-6,7,8,9-tetrahydro-5H-benzocyclohepten-5-ol (SB612111, see Magdalena and Heisler, supra), a potent nociceptin/ORL1 receptor selective antagonist, is used as a positive control to establish the RO Tracer level associated with 100% nociceptin/ORL1 RO. […]
Hypothalamic samples are homogenized in 4 volumes (w/v) of acetonitrile containing 0.1% formic acid and centrifuged at 14,000 RPM for 16 min. […] Detection of RO Tracer is accomplished by monitoring the precursor to product ion transition with a mass to charge ratio (m/z) of 435 to 239, with levels quantified by comparison to standards prepared in brain tissue homogenates. Zero percent RO is calculated as the level of RO Tracer in the hypothalamus of vehicle-pretreated animals, which represents the sum of nonspecific and specific binding (all receptors available to the tracer). […]

T1 sequence (P41146 whole entry): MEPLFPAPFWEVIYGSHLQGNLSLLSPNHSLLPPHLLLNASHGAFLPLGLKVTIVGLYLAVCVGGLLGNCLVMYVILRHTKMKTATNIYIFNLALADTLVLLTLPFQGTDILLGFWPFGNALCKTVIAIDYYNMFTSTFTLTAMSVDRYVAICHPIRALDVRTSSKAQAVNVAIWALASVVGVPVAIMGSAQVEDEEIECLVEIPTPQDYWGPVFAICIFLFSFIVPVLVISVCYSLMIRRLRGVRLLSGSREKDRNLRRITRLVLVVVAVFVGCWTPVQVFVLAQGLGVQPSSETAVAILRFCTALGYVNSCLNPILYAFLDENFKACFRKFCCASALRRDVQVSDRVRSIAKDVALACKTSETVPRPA

| Structure (SMILES) | Ki (human ORL1 receptors) [pM] | Ki (Kappa Opioid) [pM] | receptor occupancy at 3 mg/kg [1] [%] | Ki (human ORL1 receptors; [3H]OFQ 0.2 nM, CHO cell membranes, read-out: Ki ORL-1) [pM] | Ki (Kappa Opioid; read-out: Ki Kappa Opioid) [pM] | in vivo plasma concentration necessary to produce 80 percent RO (EC80 RO) ([1]; nociceptin/ORL1 receptors in the CNS) |
| --- | --- | --- | --- | --- | --- | --- |
| Cc1nn(-c2ncccc2Cn2cccn2)cc1CN1CCC2(CC1)OCC(F)(F)c1cc(Cl)sc12.O=C(O)C(O)C(O)C(=O)O [Example 23, 2-Chloro-4,4-difluoro-1′-[[3-methyl-1-[3-(pyrazol-1-ylmethyl)-2-pyridyl]pyrazol-4-yl]methyl]spiro[5H-thieno[2,3-c]pyran-7,4′-piperidine] (L)-Tartrate] | 790 | > 430000 | 80 |  |  |  |
| O=C(O)C(O)C(O)C(=O)O.OCc1nn(-c2ncccc2F)cc1CN1CCC2(CC1)OCC(F)(F)c1cc(Cl)sc12 [Example 53, [4-[(2-Chloro-4,4-difluoro-spiro[5H-thieno[2,3-c]pyran-7,4′-piperidine]-1′-yl)methyl]-1-(3-fluoro-2-pyridyl)pyrazol-3-yl]methanol (L)-Tartrate] | 450 | > 430000 | 83 |  |  |  |
| Cc1nn(-c2ncccc2CO)cc1CN1CCC2(CC1)OCC(F)(F)c1cc(Cl)sc12 [Example 62, [2-[4-[(2-Chloro-4,4-difluoro-spiro[5H-thieno[2,3-c]pyran-7,4′-piperidine]-1′-yl)methyl]-3-methyl-pyrazol-1-yl]-3-pyridyl]methanol] |  |  | 104 | 180 | > 430000 | approximately 41 nM |
